In PubChem BioAssay (NCI):
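96-well plates; 48 h exposure; 5 concentrations. Endpoints by linear interpolation between flanking doses. Not reached: highest tested concentration assigned. At the GI50, growth is halved. At the TGI there is no net growth.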

How the values were obtained:
Assay in all cases: NCI anticancer screen, dose series, 48 h
[1] = system: A549 NSCLC
[2] = system: EKVX NSCLC
[3] = system: HOP-92 NSCLC
[4] = system: T-47D breast
[5] = system: UO-31 renal
[6] = system: BT-549 breast
[7] = system: SK-MEL-5 melanoma
[8] = system: M14 melanoma
[9] = system: RPMI-8226 leukemia
[10] = system: SF-295 CNS
[11] = system: 786-0 renal
[12] = system: OVCAR-3 ovarian
[13] = system: DU-145 prostate
[14] = system: SK-MEL-28 melanoma
[15] = system: UACC-62 melanoma
[16] = system: SN12C renal
[17] = system: LOX IMVI melanoma
[18] = system: MCF7 breast
[19] = system: HL-60(TB) leukemia
[20] = system: K-562 leukemia
[21] = system: SNB-19 CNS
[22] = system: A498 renal
[23] = system: OVCAR-8 ovarian
[24] = system: SK-OV-3 ovarian
[25] = system: U251 CNS
[26] = system: SK-MEL-2 melanoma
[27] = system: HCC-2998 colon
[28] = system: NCI-H23 lung
[29] = system: NCI/ADR-RES ovarian
[30] = system: HCT-116 colon
[31] = system: MDA-MB-468 breast
[32] = system: CAKI-1 renal
[33] = system: SW-620 colon
[34] = system: CCRF-CEM leukemia
[35] = system: HT29 colon
[36] = system: PC-3 prostate
[37] = system: KM12 colon
[38] = system: HS 578T breast
[39] = system: NCI-H226 lung
[40] = system: SF-539 CNS
[41] = system: MDA-MB-231 breast
[42] = system: UACC-257 melanoma
[43] = system: HOP-62 NSCLC
[44] = system: MOLT-4 leukemia
[45] = system: OVCAR-4 ovarian
[46] = system: IGROV1 ovarian
[47] = system: HCT-15 colon
[48] = system: MALME-3M melanoma
[49] = system: OVCAR-5 ovarian
[50] = system: MDA-MB-435
[51] = system: SNB-75 CNS
[52] = system: NCI-H522 lung
[53] = system: NCI-H460 lung
[54] = system: ACHN renal
[55] = system: SF-268 CNS
[56] = system: RXF 393 renal
[57] = system: TK-10 renal
[58] = system: COLO 205 colon

CC(=O)/C=C/c1cccc2c1C(=O)NC(C)(c1cc3cc(Br)ccc3oc1=O)N2 (stereo unspecified)
GI50 [1]: 23.5 µM
TGI [1]: > 100 µM
GI50 [2]: 7.36 µM
TGI [2]: 21 µM
GI50 [3]: 2.19 µM
TGI [3]: 18 µM
GI50 [4]: 11.5 µM
TGI [4]: 64 µM
GI50 [5]: 3.59 µM
TGI [5]: 19.1 µM
GI50 [6]: 4.78 µM
TGI [6]: 18.9 µM
GI50 [7]: 9.78 µM
TGI [7]: 21.6 µM
GI50 [8]: 9.29 µM
TGI [8]: 25.3 µM
GI50 [9]: 4.04 µM
TGI [9]: 33.8 µM
GI50 [10]: 11.1 µM
TGI [10]: 25.4 µM
GI50 [11]: 13.4 µM
TGI [11]: 32 µM
GI50 [12]: 7.56 µM
TGI [12]: 24.7 µM
GI50 [13]: 8.98 µM
TGI [13]: 22.3 µM
GI50 [14]: 13.7 µM
TGI [14]: 27.8 µM
GI50 [15]: 7.01 µM
TGI [15]: 21.3 µM
GI50 [16]: 6.57 µM
TGI [16]: 24.6 µM
GI50 [17]: 10.1 µM
TGI [17]: 22 µM
GI50 [18]: 10.7 µM
TGI [18]: 32.4 µM
GI50 [19]: 5.61 µM
TGI [19]: > 100 µM
GI50 [20]: 4.67 µM
TGI [20]: > 100 µM
GI50 [21]: 12.5 µM
TGI [21]: 25.1 µM
GI50 [22]: 28.1 µM
TGI [22]: > 100 µM
GI50 [23]: 10.1 µM
TGI [23]: > 100 µM
GI50 [24]: 25.2 µM
TGI [24]: > 100 µM
GI50 [25]: 12.1 µM
TGI [25]: 25.5 µM
GI50 [26]: 10.2 µM
TGI [26]: 27.3 µM
GI50 [27]: 15.1 µM
TGI [27]: 28.6 µM
GI50 [28]: 11.9 µM
TGI [28]: 26.4 µM
GI50 [29]: 15 µM
TGI [29]: 44.5 µM
GI50 [30]: 7.13 µM
TGI [30]: 21.3 µM
GI50 [31]: 4.28 µM
TGI [31]: 19 µM
GI50 [32]: 3.87 µM
TGI [32]: 28.5 µM
GI50 [33]: 19.5 µM
TGI [33]: > 100 µM
GI50 [34]: 4.87 µM
TGI [34]: 56.7 µM
GI50 [35]: 20.7 µM
TGI [35]: 73.6 µM
GI50 [36]: 5.95 µM
TGI [36]: 39.1 µM
GI50 [37]: 12.4 µM
TGI [37]: 30.8 µM
GI50 [38]: 17.2 µM
TGI [38]: > 100 µM
GI50 [39]: 13.6 µM
TGI [39]: 58.6 µM
GI50 [40]: 8.67 µM
TGI [40]: 22.3 µM
GI50 [41]: 7.35 µM
TGI [41]: 39.6 µM
GI50 [42]: 10.4 µM
TGI [42]: 26.2 µM
GI50 [43]: 15.7 µM
TGI [43]: 44 µM
GI50 [44]: 8.47 µM
TGI [44]: > 100 µM
GI50 [45]: 11.5 µM
TGI [45]: > 100 µM
GI50 [46]: 8.12 µM
TGI [46]: 32.9 µM
GI50 [47]: 10.6 µM
TGI [47]: 32.4 µM
GI50 [48]: 11.4 µM
TGI [48]: 29.9 µM
GI50 [49]: 15.6 µM
TGI [49]: 38.3 µM
GI50 [50]: 10.6 µM
TGI [50]: 30.9 µM
GI50 [51]: 1.3 µM
TGI [51]: 19.3 µM
GI50 [52]: 13.6 µM
TGI [52]: 28.8 µM
GI50 [53]: 15.7 µM
TGI [53]: 67.6 µM
GI50 [54]: 5.02 µM
TGI [54]: > 100 µM
GI50 [55]: 12.4 µM
TGI [55]: 48.3 µM
GI50 [56]: 2.33 µM
TGI [56]: 10.7 µM
GI50 [57]: 24.5 µM
TGI [57]: 89.6 µM
GI50 [58]: 19.6 µM
TGI [58]: 40.9 µM
